In patent US20220127232A1, “HISTONE ACETYLTRANSFERASE MODULATORS AND COMPOSITIONS AND USES THEREOF” (The Trustees of Columbia University in the City of New York, priority 2019, published 2022):
“Also recorded” adds a separate entry of the source.

Experiments:
p300 = p300 (Homo sapiens, UniProt Q09472); test: Histone Acetyltransferase (HAT) in vitro acetylation assay, western blot of H3K27ac / H3K18ac; type: biochemical; conditions: compound in DMSO
Method: The aim of the in vitro acetylation assay is to measure the enzymatic activity of the various compounds towards p300.
First, the drug is prepared:
Second, dilute p300 in AM1 buffer to a concentration of 40 ng/μL (final concentration in the reaction 20 ng/μL). This is accomplished by diluting 1 μL of p300 (at 0.4 μg/μL) into […] of AM1 buffer.
Third, prepare the Master Mix. Prepare the Master Mix in low protein binding tubes (ThermoFisher Cat. No. 90410), 20 μL system.
Incubate reactions at 30° C. for 30 minutes.
Incubate reactions at 30° C. for 1 hour.
Fourth, perform the western blot assay. • Add 6.7 μL of Laemmli Sample Buffer 4× (Bio-Rad Laboratories Cat. No. 161-0737) for each reaction and boil samples at 95° C. for 5 min. • Charge 10 μL for each sample in 2 Tris Glycine 4-15% gels (Bio-Rad Laboratories Cat. No. 456-1086). Running Buffer: Tris-Glycine 1× (pour in the cell up to the writing “2 gels”). • Run at 90 V for 1 hour (until the gel front reaches the green line of cell). • Semi-dry transfer with Trans-Blot® Turbo™ Blotting System from Bio-Rad Laboratories (Trans-Blot® Turbo™ RTA midi PVDF transfer kit Cat. No1704275). • Activate PVDF membrane in methanol for 5 minutes and then wet in Trans-Blot® Turbo™ transfer buffer. • Wet stacks in transfer buffer. • Transfer at 23 V 1.3 A for 7 minutes. • Blocking buffer: 5% Non-Fat milk in TBST (tween 0.1%) 1 hour at room temperature. • Cut the membranes to get Ac-His 3 at 17 kDa and p300 at 300 kDa. • Incubate with primary antibodies overnight at 4° C. • The day after, make 3 washes in TBST (Tween 0.1%) of 10 minutes. • Incubate with secondary antibody at room temperature for 1 hour. • Make 3 washes in TBST (Tween 0.1%) of 5 minutes. • Incubate membranes with ECL (SuperSignal West Dura Extended Duration Substrate from ThermoFisher) for 5 minutes at room temperature. • Acquire the image with ChemiDoc Odyssey Fc 2 minutes.
To detect total H3 (loading control), strip the membranes with Restore™ Western Blot Stripping Buffer according to the manufacturer protocol.
Various compounds were tested for enzymatic activity with respect to Lys 18 and Lys 27. EC50 is indicated for Activators and IC50 for inhibitors respectively.
FIGS. 1A to 25B are graphs showing the lysine residue acetylation as a function of concentration for the compounds set forth in Table 3. The shaded area corresponds to the average values of lysine residue acetylation (continuous line) and their standard error range measured in the absence of compound and DMSO. The number of replicates is represented by “n”.

mice = test: 2 day radial arm water maze (RAWM), spatial short-term memory; type: in vivo
Method: Synaptic plasticity is thought to underlie memory formation. RA010115 was also tested in assays aimed at determining whether the compound can be beneficial to two types of memory, short-term spatial memory that can tested through the 2 day radial arm water maze, and contextual fear memory, a type of associative memory that depends upon hippocampal function and is impaired in AD patients. FIG. 27 is a graph showing that RA010115 rescues oTau- and oAβ-induced defects in the 2-day radial arm water maze test of spatial short-term memory. The performance in the RAWM was impaired in mice administered with oAβ (200 nM) oTau (500 nM). […] The performance was not impaired when mice were treated with only RA010115 or vehicle. (ANOVA for repeated measures among all groups at day 2: F(5, 65)=7.092, p<0.0001. One-way ANOVA for block 10: F(5, 65)=7.385, p<0.0001; Bonferroni's p<0.0001 for both oAβ vs. vehicle and oTau vs. vehicle; oAβ vs RA010115 plus oAβ p<0.001 and for oTau vs RA010115 plus oTau p<0.05.

Chain of p300 (Q09472 whole entry, species assumed): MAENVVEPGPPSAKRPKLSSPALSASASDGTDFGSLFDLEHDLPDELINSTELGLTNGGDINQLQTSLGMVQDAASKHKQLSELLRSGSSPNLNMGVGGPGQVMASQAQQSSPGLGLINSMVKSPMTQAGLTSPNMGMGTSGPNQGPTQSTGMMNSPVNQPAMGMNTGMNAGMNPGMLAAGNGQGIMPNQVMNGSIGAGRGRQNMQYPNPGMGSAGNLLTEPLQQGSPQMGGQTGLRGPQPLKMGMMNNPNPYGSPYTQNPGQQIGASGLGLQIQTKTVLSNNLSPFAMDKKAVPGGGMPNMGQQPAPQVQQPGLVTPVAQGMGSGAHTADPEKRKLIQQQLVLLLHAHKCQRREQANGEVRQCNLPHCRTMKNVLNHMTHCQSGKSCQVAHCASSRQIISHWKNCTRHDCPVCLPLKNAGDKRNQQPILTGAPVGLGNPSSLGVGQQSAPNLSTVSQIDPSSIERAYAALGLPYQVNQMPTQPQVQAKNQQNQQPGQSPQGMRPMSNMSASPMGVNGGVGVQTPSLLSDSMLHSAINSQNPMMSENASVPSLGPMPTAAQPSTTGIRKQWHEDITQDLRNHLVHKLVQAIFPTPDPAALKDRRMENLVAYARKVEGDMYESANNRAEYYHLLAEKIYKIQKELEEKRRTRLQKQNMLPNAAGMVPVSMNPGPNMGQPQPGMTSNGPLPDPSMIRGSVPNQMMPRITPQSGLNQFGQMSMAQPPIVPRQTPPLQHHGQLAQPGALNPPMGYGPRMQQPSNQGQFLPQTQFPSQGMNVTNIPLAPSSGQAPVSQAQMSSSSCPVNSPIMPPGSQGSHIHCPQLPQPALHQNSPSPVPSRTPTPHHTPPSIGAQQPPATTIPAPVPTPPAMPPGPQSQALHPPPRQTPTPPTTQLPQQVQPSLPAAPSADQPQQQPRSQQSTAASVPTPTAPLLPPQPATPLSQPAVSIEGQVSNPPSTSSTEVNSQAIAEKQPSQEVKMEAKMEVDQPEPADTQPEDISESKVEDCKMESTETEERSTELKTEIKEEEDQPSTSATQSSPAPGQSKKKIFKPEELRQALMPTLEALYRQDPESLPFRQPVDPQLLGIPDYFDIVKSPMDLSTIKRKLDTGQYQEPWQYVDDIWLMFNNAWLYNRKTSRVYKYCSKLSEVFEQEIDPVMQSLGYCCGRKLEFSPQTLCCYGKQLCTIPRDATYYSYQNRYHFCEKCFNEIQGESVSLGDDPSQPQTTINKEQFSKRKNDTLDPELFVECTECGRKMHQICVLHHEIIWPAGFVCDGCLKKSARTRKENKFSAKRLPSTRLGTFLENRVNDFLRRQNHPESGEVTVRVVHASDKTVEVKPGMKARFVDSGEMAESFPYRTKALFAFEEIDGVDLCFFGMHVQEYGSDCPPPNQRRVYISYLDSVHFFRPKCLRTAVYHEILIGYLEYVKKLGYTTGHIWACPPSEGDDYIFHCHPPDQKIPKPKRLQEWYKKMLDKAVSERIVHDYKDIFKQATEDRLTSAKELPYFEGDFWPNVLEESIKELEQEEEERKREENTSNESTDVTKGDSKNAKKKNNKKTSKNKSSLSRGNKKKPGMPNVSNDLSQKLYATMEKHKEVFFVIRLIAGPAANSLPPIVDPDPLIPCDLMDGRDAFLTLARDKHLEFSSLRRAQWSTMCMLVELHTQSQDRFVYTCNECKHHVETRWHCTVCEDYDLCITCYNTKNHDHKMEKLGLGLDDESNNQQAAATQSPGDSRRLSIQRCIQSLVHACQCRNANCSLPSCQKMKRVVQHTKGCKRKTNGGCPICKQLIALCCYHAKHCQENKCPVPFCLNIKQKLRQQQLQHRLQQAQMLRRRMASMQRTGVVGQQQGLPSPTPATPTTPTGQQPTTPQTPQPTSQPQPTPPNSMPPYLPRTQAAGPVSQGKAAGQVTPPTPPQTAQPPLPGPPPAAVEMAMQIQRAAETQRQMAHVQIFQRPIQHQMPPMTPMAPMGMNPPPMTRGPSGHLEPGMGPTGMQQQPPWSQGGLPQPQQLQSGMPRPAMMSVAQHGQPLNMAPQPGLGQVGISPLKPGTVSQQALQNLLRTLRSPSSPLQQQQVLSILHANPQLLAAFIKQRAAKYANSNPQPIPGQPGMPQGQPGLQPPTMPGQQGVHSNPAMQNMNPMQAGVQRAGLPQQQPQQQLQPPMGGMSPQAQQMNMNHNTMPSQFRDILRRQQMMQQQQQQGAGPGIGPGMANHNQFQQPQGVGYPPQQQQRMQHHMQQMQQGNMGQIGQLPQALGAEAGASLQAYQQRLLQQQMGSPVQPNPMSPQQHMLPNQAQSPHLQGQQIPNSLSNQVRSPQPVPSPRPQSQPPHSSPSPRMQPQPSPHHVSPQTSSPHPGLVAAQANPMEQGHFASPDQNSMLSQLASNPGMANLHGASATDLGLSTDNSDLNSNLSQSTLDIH

**Q.** Which “H3-Lys 27 EC50” value (p300; EC50 for activators) does the source give for `COc1cccc(OC)c1C(=O)Nc1ccc(Cl)c(C(F)(F)F)c1` [RA010115] here?
**A.** Its value is “NO ACTIVITY”.

**Q.** And the EC50 (p300; EC50 for activators, read-out: H3-Lys 18 EC50)?
**A.** Its EC50 is 137 nM.

**Q.** And the “H3-Lys 27 IC50” value (p300; IC50 for inhibitors)?
**A.** The value was “NO ACTIVITY”.

**Q.** And the “oTau- and oAβ-induced defects in RAWM performance” value (mice; mice administered oAβ (200 nM) or oTau (500 nM), compound 5 mg/kg, 5 mg/kg)?
**A.** Its value is “rescued the deficit; also recorded: rescues”.

**Q.** What about the “RAWM performance, compound alone” value (mice; mice treated with only compound) of the same molecule?
**A.** Its value is “not impaired”.
